From patent US9394297B2, “Amides as pim inhibitors” (AMGEN INC., priority 2012, dated 2016) come the findings set out here.

Experiment [1] has as its target Pim-2 (Homo sapiens (Human), UniProt Q9P1W9). Nature of the experiment: Pim-Mn enzyme assay (HTRF, 384-well), Pim-2. The class given is biochemical. The note with it: read-out: Pim-2-Mn IC50 IP. In general terms: TR-FRET usually uses a lanthanide donor and a delayed reading to cut background.
The target in experiment [2] is Pim-1 (Homo sapiens (Human), UniProt P11309). Nature of the experiment: Pim-Mn enzyme assay (HTRF, 384-well), Pim-1. The class given is biochemical. Particulars: read-out: Pim-1-Mn IC50 IP.
Sequence of Pim-1 (P11309 whole entry): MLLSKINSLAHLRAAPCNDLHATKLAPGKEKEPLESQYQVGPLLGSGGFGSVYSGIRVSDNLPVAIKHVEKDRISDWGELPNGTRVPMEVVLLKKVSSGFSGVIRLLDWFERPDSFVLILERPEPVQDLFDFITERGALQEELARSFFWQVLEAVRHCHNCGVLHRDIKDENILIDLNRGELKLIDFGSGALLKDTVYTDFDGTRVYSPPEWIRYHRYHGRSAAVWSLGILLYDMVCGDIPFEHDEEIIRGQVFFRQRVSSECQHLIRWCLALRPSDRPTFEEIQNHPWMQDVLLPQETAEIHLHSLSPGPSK
Experiment [3] has as its system KMS-12-BM cell lines. Put plainly: KMS12 #2 flow cytometry assay (phospho-BAD Ser112). The note with it: Homo sapiens, 110 min; KMS-12-BM cells, pBAD Ser112 by flow cytometry, 110 min with compound; read-out: KMS-12-Flow IC50 IP. The format is cell-based. (In general: A flow cytometer gives signals particle by particle.)
[4] abbreviates: Pim-2 enzyme 0.5 pM, ATP 1.5 μM, BAD (S112) 0.5 μM, HTRF, 22-point curve.
[5] abbreviates: Pim-1 enzyme 5 pM, ATP 1.5 μM, BAD (S112) 0.5 μM, HTRF, 22-point curve.

Where a name gives a salt, the structure may show the parent alone. Read-outs that look alike come from different tables or passages of the source.

Sequence of Pim-2 (Q9P1W9 whole entry): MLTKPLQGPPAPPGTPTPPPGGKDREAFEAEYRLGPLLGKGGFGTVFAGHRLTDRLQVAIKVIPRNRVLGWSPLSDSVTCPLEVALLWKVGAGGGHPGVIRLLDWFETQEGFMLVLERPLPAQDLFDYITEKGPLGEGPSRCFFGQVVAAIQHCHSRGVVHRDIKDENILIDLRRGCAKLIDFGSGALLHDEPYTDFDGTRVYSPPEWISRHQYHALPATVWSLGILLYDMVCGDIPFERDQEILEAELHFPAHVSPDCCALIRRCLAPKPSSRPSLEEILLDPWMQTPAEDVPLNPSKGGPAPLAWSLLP

As usually defined, the IC50 is the point on the concentration scale where inhibition reaches its midpoint. Take `Cc1nc2ccc(F)c(-c3cc4c([nH]3)[C@H]([C@@H](C)O)NC4=O)c2nc1NC1CC1` [Example 352, (6R)-2-(3-(cyclopropylamino)-6-fluoro-2-methyl-5-quinoxalinyl)-6-((1R)-1-hydroxyethyl)-5,6-dihydropyrrolo[3,4-b]pyrrol-4(1H)-one]: the IC50 in experiment [1] (setting [4]) is 2.45 nM; in experiment [2] (setting [5]) it was 1.59 nM; in experiment [3], 188 nM.

Consider `CC(=O)Nc1nc2c(-c3cc4c([nH]3)CCNC4=O)cccc2nc1C` [Example 445, N-(3-methyl-8-(4-oxo-4,5,6,7-tetrahydro-1H-pyrrolo[3,2-c]pyridin-2-yl)quinoxalin-2-yl)acetamide], for which the IC50 in experiment [1] (setting [4]) was 20.1 nM; in experiment [2] (setting [5]), 27.9 nM; in experiment [3] it was over 40000 nM.

As to `Cc1nc2ccc(F)c(-c3cc4c([nH]3)CNC4=O)c2nc1NC(C)(C)C` [Example 296, 2-(3-(tert-butylamino)-6-fluoro-2-methyl-5-quinoxalinyl)-5,6-dihydropyrrolo[3,4-b]pyrrol-4(1H)-one], the IC50 in experiment [1] (setting [4]) turned out to be 0.501 nM; in experiment [2] (setting [5]), 0.508 nM; in experiment [3] it was 36.2 nM.

As to `Cc1nc2cccc(-c3cc4c([nH]3)CCNC4=O)c2nc1NC(=N)N` [Example 447, 1-(3-methyl-8-(4-oxo-4,5,6,7-tetrahydro-1H-pyrrolo[3,2-c]pyridin-2-yl)quinoxalin-2-yl)guanidine], the half-maximal inhibitory concentration (IC50) came to 139 nM in experiment [1] (setting [4]), 133 nM in experiment [2] (setting [5]) and 2630 nM in experiment [3].

In the case of `Cc1nc2cccc(-c3cc4c([nH]3)CCNC4=O)c2nc1NCC1(C)CC1` [Example 335, 2-(2-Methyl-3-(((1-methylcyclopropyl)methyl)amino)-5-quinoxalinyl)-1,5,6,7-tetrahydro-4H-pyrrolo[3,2-c]pyridin-4-one], the values for the IC50 in experiment [1] (setting [4]), in experiment [2] (setting [5]) and in experiment [3] were 0.996 nM, 1.22 nM and 99.3 nM, respectively.

As to `CC(C)(C)Nc1ncc2cccc(-c3cc4c([nH]3)CCNC4=O)c2n1` [Example 374, 2-(2-(tert-butylamino)quinazolin-8-yl)-6,7-dihydro-1H-pyrrolo[3,2-c]pyridin-4(5H)-one], the results for the IC50 in experiment [1] (setting [4]), in experiment [2] (setting [5]) and in experiment [3] were 3.62 nM, 2.54 nM and 769 nM, respectively.

In the case of `Cc1nc2cccc(-c3cc4c([nH]3)[C@@H](C)NC4=O)c2nc1NC(C)(C)CO` [Example 302, (6R)-2-(3-((2-hydroxy-1,1-dimethylethyl)amino)-2-methyl-5-quinoxalinyl)-6-methyl-5,6-dihydropyrrolo[3,4-b]pyrrol-4(1H)-one], the values for the IC50 in experiment [1], in experiment [2] and in experiment [3] were 1.45 nM, 1.84 nM and 71.2 nM, respectively.

Turning to `Cc1nc2ccc(F)c(-c3cc4c([nH]3)C3(CC3)NC4=O)c2nc1NC(C)C` [Example 330, 2′-(6-Fluoro-3-(isopropylamino)-2-methylquinoxalin-5-yl)-1′H-spiro[cyclopropane-1,6′-pyrrolo[3,4-b]pyrrol]-4′(5′H)-one], the IC50 in experiment [1] (setting [4]) stood at 1.17 nM; in experiment [2] (setting [5]), 0.724 nM; in experiment [3], 85.6 nM.

On to `Cc1nc2cccc(-c3cc4c([nH]3)CNC4=O)c2nc1NC1CC1` [Example 363, 2-(3-(cyclopropylamino)-2-methylquinoxalin-5-yl)-5,6-dihydropyrrolo[3,4-b]pyrrol-4(1H)-one], for which the IC50 in experiment [1] (setting [4]) was found to be 0.297 nM; in experiment [2] (setting [5]), 0.345 nM; in experiment [3], 142 nM.

On to `C[C@H](O)c1nc2cccc(-c3cc4c([nH]3)CCNC4=O)c2nc1NC(C)(C)C` [Example 310, (S)-2-(3-(tert-butylamino)-2-(1-hydroxyethyl)quinoxalin-5-yl)-6,7-dihydro-1H-pyrrolo[3,2-c]pyridin-4(5H)-one], for which the IC50 was found to be 3 nM in experiment [1] (setting [4]), 4 nM in experiment [2] (setting [5]) and 344 nM in experiment [3].

In the case of `Cc1nc2cccc(-c3cc4c([nH]3)CCNC4=S)c2nc1NC(C)(C)C` [Example 292, 2-(3-(tert-butylamino)-2-methylquinoxalin-5-yl)-6,7-dihydro-1H-pyrrolo[3,2-c]pyridine-4(5H)-thione], the IC50 was 2.54 nM in experiment [1] (setting [4]), 1.61 nM in experiment [2] (setting [5]) and 657 nM in experiment [3].

For `Cc1nc2cccc(-c3cc4c([nH]3)C(CCO)NC4=O)c2nc1NC(C)(C)C` (stereo not drawn) [Example 462, 2-(3-(tert-butylamino)-2-methyl-5-quinoxalinyl)-6-(2-hydroxyethyl)-5,6-dihydropyrrolo[3,4-b]pyrrol-4(1H)-one], the figures for the IC50 in experiment [1] (setting [4]), in experiment [2] (setting [5]) and in experiment [3] were 0.47 nM, 0.51 nM and 122 nM, respectively.

`Cc1ccccc1-c1nc2c(-c3cc4c([nH]3)CCNC4=O)cccc2nc1C` [Example 426, 2-(2-Methyl-3-(o-tolyl)quinoxalin-5-yl)-6,7-dihydro-1H-pyrrolo[3,2-c]pyridin-4(5H)-one]: the IC50 is 127 nM in experiment [1] (setting [4]), 52.3 nM in experiment [2] (setting [5]) and over 40000 nM in experiment [3].

For `Cc1nc2ccc(F)c(-c3cc4c([nH]3)[C@@H]([C@H](C)O)NC4=O)c2nc1NC1CC1` [Example 353, (6S)-2-(3-(cyclopropylamino)-6-fluoro-2-methyl-5-quinoxalinyl)-6-((1S)-1-hydroxyethyl)-5,6-dihydropyrrolo[3,4-b]pyrrol-4(1H)-one], the IC50 in experiment [1] (setting [4]) was determined as 2.3 nM; in experiment [2] (setting [5]), 2.26 nM; in experiment [3], 109 nM.

In the case of `Cc1nc2ccc(F)c(-c3cc4c([nH]3)CCNC4=O)c2nc1NC1(C)CCC1` [Example 376, 2-(6-fluoro-2-methyl-3-((1-methylcyclobutyl)amino)quinoxalin-5-yl)-6,7-dihydro-1H-pyrrolo[3,2-c]pyridin-4(5H)-one], the IC50 came out at 0.136 nM in experiment [1] (setting [4]), 0.191 nM in experiment [2] (setting [5]) and 37.6 nM in experiment [3].

Take `Cc1nc2cccc(-c3cc4c([nH]3)CCNC4=O)c2nc1N1CC(S(C)(=O)=O)C1` [Example 318, 2-(2-methyl-3-(3-(methylsulfonyl)-1-azetidinyl)-5-quinoxalinyl)-1,5,6,7-tetrahydro-4H-pyrrolo[3,2-c]pyridin-4-one]: the concentration for half-maximal inhibition (IC50) in experiment [1] (setting [4]) is 26.7 nM; in experiment [2] (setting [5]), 34.1 nM; in experiment [3], over 40000 nM.

For the molecule `Cc1nc2cccc(-c3cc4c([nH]3)C3(CC3)NC4=O)c2nc1NC(C)(C)C` [Example 324, 2′-(3-(tert-butylamino)-2-methyl-5-quinoxalinyl)-1′H-spiro[cyclopropane-1,6′-pyrrolo[3,4-b]pyrrol]-4′(5′H)-one], the IC50 in experiment [1] came out at 0.223 nM; in experiment [2] (setting [5]), 0.139 nM; in experiment [3], 91.7 nM.

On to `COCCOCC(C)(C)Nc1nc2c(-c3cc4c([nH]3)CCNC4=O)cccc2nc1C` [Example 317, 2-(3-((2-(2-methoxyethoxy)-1,1-dimethylethyl)amino)-2-methyl-5-quinoxalinyl)-1,5,6,7-tetrahydro-4H-pyrrolo[3,2-c]pyridin-4-one], for which the IC50 turned out to be 14.7 nM in experiment [1] (setting [4]), 9.94 nM in experiment [2] (setting [5]) and 1360 nM in experiment [3].

In the case of `Cc1nc2ccc(F)c(-c3cc4c([nH]3)[C@H](C)NC4=O)c2nc1NC1CC1` [Example 285, (S)-2-(3-(cyclopropylamino)-6-fluoro-2-methylquinoxalin-5-yl)-6-methyl-5,6-dihydropyrrolo[3,4-b]pyrrol-4(1H)-one], the IC50 was 0.902 nM in experiment [1] (setting [4]), 0.534 nM in experiment [2] (setting [5]) and 51.8 nM in experiment [3].

Turning to `Cc1nc2cccc(-c3cc4n(n3)CCNC4=O)c2nc1NC(C)(C)C` [Example 471, 2-(3-(tert-butylamino)-2-methylquinoxalin-5-yl)-6,7-dihydropyrazolo[1,5-a]pyrazin-4(5H)-one], the IC50 in experiment [1] turned out to be 593 nM; in experiment [2] (setting [5]), 164 nM; in experiment [3] it was 15500 nM.

For `Cc1nc2cccc(-c3cc4c([nH]3)CCNC4=O)c2nc1NCC(F)(F)F` [Example 336, 2-(2-methyl-3-((2,2,2-trifluoroethyl)amino)-5-quinoxalinyl)-1,5,6,7-tetrahydro-4H-pyrrolo[3,2-c]pyridin-4-one], the IC50 in experiment [1] (setting [4]) was 1.32 nM; in experiment [2] (setting [5]) it was 2.82 nM; in experiment [3], 145 nM.

For `C[C@@H](O)c1nc2cccc(-c3cc4c([nH]3)CCNC4=O)c2nc1NC(C)(C)C` [Example 311, (R)-2-(3-(tert-butylamino)-2-(1-hydroxyethyl)quinoxalin-5-yl)-6,7-dihydro-1H-pyrrolo[3,2-c]pyridin-4(5H)-one], the IC50 in experiment [1] (setting [4]) came to 1.95 nM; in experiment [2] (setting [5]) it was 1.98 nM; in experiment [3] it was 151 nM.

As for `Cc1nc2cccc(-c3cc4c([nH]3)[C@@H](C)NC4=O)c2nc1NCC(F)(F)F` [Example 294, (6R)-6-methyl-2-(2-methyl-3-((2,2,2-trifluoroethyl)amino)-5-quinoxalinyl)-5,6-dihydropyrrolo[3,4-b]pyrrol-4(1H)-one], the IC50 came out at 2.23 nM in experiment [1] (setting [4]), 1.23 nM in experiment [2] (setting [5]) and 165 nM in experiment [3].

As to `Cc1nc2ccc(F)c(-c3cc4c(=O)[nH]ccc4[nH]3)c2nc1NC(C)(C)C` [Example 371, 2-(3-(tert-butylamino)-6-fluoro-2-methylquinoxalin-5-yl)-1H-pyrrolo[3,2-c]pyridin-4(5H)-one 2,2,2-trifluoroacetate salt], the IC50 is 0.0667 nM in experiment [1], 0.246 nM in experiment [2] and 148 nM in experiment [3].

With `Cc1nc2cccc(-c3cc4c(=O)[nH]ncc4[nH]3)c2nc1NC(C)(C)C` [Example 423, 2-(3-(tert-butylamino)-2-methylquinoxalin-5-yl)-1H-pyrrolo[2,3-d]pyridazin-4(5H)-one], the values for the IC50 in experiment [1] (setting [4]), in experiment [2] (setting [5]) and in experiment [3] were 3.71 nM, 5.44 nM and 378 nM, respectively.
